Columns and labels:
[1] = biological target: phosphorylated ERBB2 (pERBB2) (Homo sapiens (Human), UniProt P04626); assay: Detection of phosphorylated ERBB2 (pERBB2) by ELISA in BT-474 cells; type: cell-based; conditions: four hours incubation with compound
Method: BT-474 cells were seeded into a 96-well at 2.0*10^4cells/100 μl/well. Compounds were dissolved and serially diluted in DMSO. The compounds were then were added, mixed, and incubated for four hours at 37° C., 5% CO2. […] Following the four hour incubation with compounds, cell lysates were prepared. Plates were centrifuged for 5 min at 3000 RPM, and supernatant was removed from each well. Cells were washed 3 times by resuspension in 150 μl PBS, followed by centrifugation and removal of the supernatant, as above. 100 μl of cell lysis buffer (Boston BioProducts, cat #BP-115D) supplied with 1×complete ULTRA cocktail inhibitor (Thermo ScientificTM, cat #78443) was then added to the washed cells. Cells were incubated with lysis buffer for 1 hour at 4° C., and then stored at -80° C. Enzyme-linked immunosorbent assays (ELISA) were performed to measure phosphorylated ERBB2 levels. […] The next day, plates were washed with PBS+0.05% Tween20 (PBST). 150 μl of 5% BSA blocking solution was added for 1 hour at room temperature, with shaking. Plates were washed with PBST. Cell lysates were thawed and 100 μl of lysate was added to the ELISA plate. The plates were incubated for 2 hours at room temperature, with shaking. ELISA plates were then washed with PBST and 100 μl of an HRP-labeled detection antibody that binds phosphorylated tyrosine (R&D Systems, cat #841913) was added to each well. Plates were incubated for 1 hour at room temperature, with shaking. Plates were then washed with PBST, and 100 μl TMB substrate solution (R&D Systems, cat #DY999) was added. Plate were incubated in the dark for 20 minutes at room temperature. 50 μl of Stop solution (R&D Systems, cat #DY994) (50 μl) was added to each well and mixed. […] The remaining kinase activity by calculated using the following formula: % Relative activity=100×([…]). The low and high control values (“LC” and “HC”) were generated from lysate from wells without cells or with cells treated with 0.1% DMSO, respectively.

[2] = biological target: phosphorylated EGFR (pEGFR) (Homo sapiens (Human), UniProt P00533); assay: Detection of phosphorylated EGFR (pEGFR) by AlphaLISA in A431 cells; type: cell-based; conditions: A431 cells (10% FBS), 4 hours incubation, EGF 30 ng/mL for 10 minutes
Method: […] were performed to measure phosphorylated EGFR levels using A431 cells (10% FBS). A431 (1.0*10^4cells/40 μl/well) cells were seeded in 384 well. Compounds were dissolved in DMSO, serially diluted in DMSO and then were added, mixed, and incubated for 4 hours at 37° C., […]. Following the 4-hours incubation, cells were stimulated for 10 minutes with EGF (Invitrogen, cat #PHG0311) at a final concentration of 30 ng/mL in the incubator. The media was aspirated and cells were lysed in 10 μL lysis buffer with protease and phosphatase inhibitors (PerkinElmer, cat #ALSU-PEGFR-A50K). The plates were placed on a shaker for 5 minutes and then incubated for 30 min at 4° C. for complete lysis. The lysate was transferred to an Optiplate (Perkin Elmer, cat #6007290).
Acceptor mix (PerkinElmer, cat #ALSU-PEGFR-A50K) was prepared just before use and 5 μL was dispensed to all the wells, followed by a 1.5-2 h incubation at room temperature in dark. The donor mix (PerkinElmer, cat #ALSU-PEGFR-A50K) was prepared under low light conditions prior to use and 5 μl of donor mix was added to all the wells under subdued lighting or green filters. The plates were placed on a shaker for 5 min, sealed, and incubated overnight at room temperature in dark. Plates were read on the Envision (PerkinElmer) using standard AlphaLISA settings.
The percentage of inhibition on EGFR phosphorylation was calculated following equation: % Inhibition=100×(LumHC−LumSample)/(LumHC−LumLC). The low and high controls (LC/HC) are generated from lysate from wells with cells treated with DMSO or […] Staurosporine (BioAustralis, cat #BIA-S1086), […]. IC50 values were calculated by fitting the Curve using XLfit (v5.3.1.3), equation 201: Y=Bottom+(Top−Bottom)/(1+10^((LogIC50−X)*HillSlope)).

Sequence of phosphorylated ERBB2 (pERBB2) (P04626 23-1255): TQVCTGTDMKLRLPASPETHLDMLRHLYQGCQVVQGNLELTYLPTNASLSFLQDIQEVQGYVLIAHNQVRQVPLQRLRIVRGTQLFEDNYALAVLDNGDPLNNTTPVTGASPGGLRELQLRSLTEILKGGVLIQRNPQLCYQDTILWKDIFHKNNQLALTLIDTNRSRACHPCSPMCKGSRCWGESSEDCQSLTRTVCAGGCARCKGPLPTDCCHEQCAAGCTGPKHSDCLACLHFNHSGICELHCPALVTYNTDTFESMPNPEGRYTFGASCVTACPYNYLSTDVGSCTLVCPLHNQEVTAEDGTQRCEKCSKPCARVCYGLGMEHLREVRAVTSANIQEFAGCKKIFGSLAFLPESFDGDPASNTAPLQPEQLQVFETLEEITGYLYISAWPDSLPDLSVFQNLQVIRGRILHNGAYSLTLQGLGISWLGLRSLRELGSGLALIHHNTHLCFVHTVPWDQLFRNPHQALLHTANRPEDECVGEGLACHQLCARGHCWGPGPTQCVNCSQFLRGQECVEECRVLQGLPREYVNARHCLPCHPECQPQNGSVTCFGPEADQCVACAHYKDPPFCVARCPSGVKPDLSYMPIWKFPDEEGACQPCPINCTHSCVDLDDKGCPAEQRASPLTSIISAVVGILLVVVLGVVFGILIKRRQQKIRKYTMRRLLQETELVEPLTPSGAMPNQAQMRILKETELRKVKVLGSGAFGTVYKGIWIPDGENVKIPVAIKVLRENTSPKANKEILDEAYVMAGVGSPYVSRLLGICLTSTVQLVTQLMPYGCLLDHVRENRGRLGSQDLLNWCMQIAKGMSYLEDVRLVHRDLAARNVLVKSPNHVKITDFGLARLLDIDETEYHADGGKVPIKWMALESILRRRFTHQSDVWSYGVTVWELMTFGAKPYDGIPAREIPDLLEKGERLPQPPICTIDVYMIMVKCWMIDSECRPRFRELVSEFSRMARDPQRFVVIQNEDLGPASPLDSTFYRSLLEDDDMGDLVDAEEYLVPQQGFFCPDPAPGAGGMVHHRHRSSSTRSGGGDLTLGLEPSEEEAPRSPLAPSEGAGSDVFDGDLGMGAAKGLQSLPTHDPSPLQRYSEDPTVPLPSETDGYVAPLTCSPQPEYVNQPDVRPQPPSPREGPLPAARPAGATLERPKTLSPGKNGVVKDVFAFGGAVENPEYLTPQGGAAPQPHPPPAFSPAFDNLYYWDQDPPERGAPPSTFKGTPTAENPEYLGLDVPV
Sequence of phosphorylated EGFR (pEGFR) (P00533 25-1210): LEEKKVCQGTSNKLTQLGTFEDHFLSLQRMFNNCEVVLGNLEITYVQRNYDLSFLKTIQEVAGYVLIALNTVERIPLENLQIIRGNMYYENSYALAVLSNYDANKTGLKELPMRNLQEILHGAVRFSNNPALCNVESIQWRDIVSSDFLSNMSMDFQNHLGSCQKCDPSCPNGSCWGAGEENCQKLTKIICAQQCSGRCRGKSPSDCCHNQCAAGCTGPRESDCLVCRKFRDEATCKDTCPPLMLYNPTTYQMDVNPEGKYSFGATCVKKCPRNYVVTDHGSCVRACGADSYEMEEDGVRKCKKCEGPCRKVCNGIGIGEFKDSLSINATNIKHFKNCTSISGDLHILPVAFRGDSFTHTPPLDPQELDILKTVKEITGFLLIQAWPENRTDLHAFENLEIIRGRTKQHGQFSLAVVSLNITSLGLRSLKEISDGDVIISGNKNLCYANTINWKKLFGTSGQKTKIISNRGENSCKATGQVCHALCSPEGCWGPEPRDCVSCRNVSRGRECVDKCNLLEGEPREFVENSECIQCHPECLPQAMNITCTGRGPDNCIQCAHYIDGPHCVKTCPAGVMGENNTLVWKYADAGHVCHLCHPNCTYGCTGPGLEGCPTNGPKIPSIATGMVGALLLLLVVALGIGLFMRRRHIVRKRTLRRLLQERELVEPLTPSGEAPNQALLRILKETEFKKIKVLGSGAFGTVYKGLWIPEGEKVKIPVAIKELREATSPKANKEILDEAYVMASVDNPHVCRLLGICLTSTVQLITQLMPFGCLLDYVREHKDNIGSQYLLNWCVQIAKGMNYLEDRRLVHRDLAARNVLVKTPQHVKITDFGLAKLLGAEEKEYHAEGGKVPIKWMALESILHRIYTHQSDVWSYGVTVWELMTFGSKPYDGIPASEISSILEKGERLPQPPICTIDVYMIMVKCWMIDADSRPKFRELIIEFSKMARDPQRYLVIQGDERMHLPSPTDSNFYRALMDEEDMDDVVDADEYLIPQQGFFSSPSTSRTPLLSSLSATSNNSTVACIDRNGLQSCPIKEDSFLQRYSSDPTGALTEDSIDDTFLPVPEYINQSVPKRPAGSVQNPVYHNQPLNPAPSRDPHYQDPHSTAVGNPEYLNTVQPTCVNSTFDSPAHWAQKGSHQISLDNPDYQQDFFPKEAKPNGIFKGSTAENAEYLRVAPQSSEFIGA

Row | Structure (SMILES) | IC50 [1] [nM] | IC50 [2] [nM]
1 | CC#CC(=O)N1CCN2CC1COc1cc3ncnc(Nc4ccc(Oc5ccc6c(c5)ncn6C)c(C)c4)c3nc12 (stereo in doubt) [Compound 16, 1-((10S)-4-((3-methyl-4-((1-methyl-1H-benzo[d]imidazol-5-yl)oxy)phenyl)amino)-7,8,10,11-tetrahydro-9H-6,10-methanopyrimido[4′,5′:5,6]pyrido[3,2-b][1,4,7]oxadiazonin-9-yl)but-2-yn-1-one] | 242 | > 10000
2 | CC#CC(=O)N1CCN2CC1COc1cc3ncnc(Nc4ccc(Oc5ccn6ncnc6c5)c(C)c4)c3nc12 (stereo in doubt) [Compound 18, 1-((10S)-4-((4-([1,2,4]triazolo[1,5-a]pyridin-7-yloxy)-3-methylphenyl)amino)-7,8,10,11-tetrahydro-9H-6,10-methanopyrimido[4′,5′:5,6]pyrido[3,2-b][1,4,7]oxadiazonin-9-yl)but-2-yn-1-one] | 62.8 | 4430
3 | Cc1ccc(Oc2ccc(Nc3ncnc4cc5c(nc34)N3CCN(C(=O)/C=C/CN(C)C)C(CO5)C3)cc2C)cn1 (stereo in doubt) [Compound 21, (E)-4-(dimethylamino)-1-((10S)-4-((3-methyl-4-((6-methylpyridin-3-yl)oxy)phenyl)amino)-7,8,10,11-tetrahydro-9H-6,10-methanopyrimido[4′,5′:5,6]pyrido[3,2-b][1,4,7]oxadiazonin-9-yl)but-2-en-1-one] | 25 | 621
4 | C=C(F)C(=O)N1CCN2CC1COc1cc3ncnc(Nc4ccc(Oc5ccn6ncnc6c5)c(C)c4)c3nc12 (stereo in doubt) [Compound 23, 1-((10S)-4-((4-([1,2,4]triazolo[1,5-a]pyridin-7-yloxy)-3-methylphenyl)amino)-7,8,10,11-tetrahydro-9H-6,10-methanopyrimido[4′,5′:5,6]pyrido[3,2-b][1,4,7]oxadiazonin-9-yl)-2-fluoroprop-2-en-1-one] | 209 | > 10000
5 | Cc1cc(Nc2ncnc3cc4c(nc23)N2CCN(C(=O)/C=C/CN(C)C)C(CO4)C2)c(F)cc1Oc1ccn2ncnc2c1 (stereo in doubt) [Compound 24, (E)-1-((10S)-4-((4-([1,2,4]triazolo[1,5-a]pyridin-7-yloxy)-2-fluoro-5-methylphenyl)amino)-7,8,10,11-tetrahydro-9H-6,10-methanopyrimido[4′,5′:5,6]pyrido[3,2-b][1,4,7]oxadiazonin-9-yl)-4-(dimethylamino)but-2-en-1-one] | 8.38 | 2160
6 | Cc1cc(Nc2ncnc3cc4c(nc23)N2CCN(C(=O)/C=C/CN(C)C)C(CO4)C2)ccc1Oc1cccnc1 (stereo in doubt) [Compound 25, (E)-4-(dimethylamino)-1-((10S)-4-((3-methyl-4-(pyridin-3-yloxy)phenyl)amino)-7,8,10,11-tetrahydro-9H-6,10-methanopyrimido[4′,5′:5,6]pyrido[3,2-b][1,4,7]oxadiazonin-9-yl)but-2-en-1-one] | 5.54 | 338
7 | Cc1cc(Nc2ncnc3cc4c(nc23)N2CCN(C(=O)/C=C/[C@H]3CCCN3C)C(CO4)C2)ccc1Oc1ccn2ncnc2c1 (stereo in doubt) [Compound 27, (E)-1-((10S)-4-((4-([1,2,4]triazolo[1,5-a]pyridin-7-yloxy)-3-methylphenyl)amino)-7,8,10,11-tetrahydro-9H-6,10-methanopyrimido[4′,5′:5,6]pyrido[3,2-b][1,4,7]oxadiazonin-9-yl)-3-((R)-1-methylpyrrolidin-2-yl)prop-2-en-1-one] | 14.4 | 5260
8 | Cc1cc(Nc2ncnc3cc4c(nc23)N2CCN(C(=O)/C=C/[C@@H]3CCCN3C)C(CO4)C2)ccc1Oc1ccn2ncnc2c1 (stereo in doubt) [Compound 28, (E)-1-((10S)-4-((4-([1,2,4]triazolo[1,5-a]pyridin-7-yloxy)-3-methylphenyl)amino)-7,8,10,11-tetrahydro-9H-6,10-methanopyrimido[4′,5′:5,6]pyrido[3,2-b][1,4,7]oxadiazonin-9-yl)-3-((S)-1-methylpyrrolidin-2-yl)prop-2-en-1-one] | 10.8 | 8770
9 | Cc1cc(Nc2ncnc3cc4c(nc23)N2CCN(C(=O)/C=C/[C@@H](C)N(C)C)C(CO4)C2)ccc1Oc1ccn2ncnc2c1 (stereo in doubt) [Compound 29, (4R,E)-1-((10S)-4-((4-([1,2,4]triazolo[1,5-a]pyridin-7-yloxy)-3-methylphenyl)amino)-7,8,10,11-tetrahydro-9H-6,10-methanopyrimido[4′,5′:5,6]pyrido[3,2-b][1,4,7]oxadiazonin-9-yl)-4-(dimethylamino)pent-2-en-1-one] | 16.8 | > 10000
10 | CN(C)C/C=C/C(=O)N1CCN2CC1COc1cc3ncnc(Nc4ccc(Oc5ccn6ncnc6c5)cc4)c3nc12 (stereo in doubt) [Compound 31, (E)-1-((10S)-4-((4-([1,2,4]triazolo[1,5-a]pyridin-7-yloxy)phenyl)amino)-7,8,10,11-tetrahydro-9H-6,10-methanopyrimido[4′,5′:5,6]pyrido[3,2-b][1,4,7]oxadiazonin-9-yl)-4-(dimethylamino)but-2-en-1-one] | 18.5 | > 10000
11 | CN(C)C/C=C/C(=O)N1CCN2CC1COc1cc3ncnc(Nc4ccc(Oc5ccn6ncnc6c5)c(Cl)c4)c3nc12 (stereo in doubt) [Compound 32, (E)-1-((10S)-4-((4-([1,2,4]triazolo[1,5-a]pyridin-7-yloxy)-3-chlorophenyl)amino)-7,8,10,11-tetrahydro-9H-6,10-methanopyrimido[4′,5′:5,6]pyrido[3,2-b][1,4,7]oxadiazonin-9-yl)-4-(dimethylamino)but-2-en-1-one] | 8.41 | 920
12 | Cc1cc(Nc2ncnc3cc4c(nc23)N2CCN(C(=O)/C=C/CN(C)C)C(CO4)C2)ccc1Oc1ccn2ccnc2c1 (stereo in doubt) [Compound 34, (E)-4-(dimethylamino)-1-((10S)-4-((4-(imidazo[1,2-a]pyridin-7-yloxy)-3-methylphenyl)amino)-7,8,10,11-tetrahydro-9H-6,10-methanopyrimido[4′,5′:5,6]pyrido[3,2-b][1,4,7]oxadiazonin-9-yl)but-2-en-1-one] | 17.7 | 465
13 | Cc1c(Oc2ccn3ncnc3c2)ccc(Nc2ncnc3cc4c(nc23)N2CCN(C(=O)/C=C/CN(C)C)C(CO4)C2)c1F (stereo in doubt) [Compound 35, (E)-1-((10S)-4-((4-([1,2,4]triazolo[1,5-a]pyridin-7-yloxy)-2-fluoro-3-methylphenyl)amino)-7,8,10,11-tetrahydro-9H-6,10-methanopyrimido[4′,5′:5,6]pyrido[3,2-b][1,4,7]oxadiazonin-9-yl)-4-(dimethylamino)but-2-en-1-one] | 5.48 | 309
14 | CN(C)C/C=C/C(=O)N1CCN2CC1COc1cc3ncnc(Nc4ccc(Oc5ccn6ncnc6c5)c(F)c4)c3nc12 (stereo in doubt) [Compound 39, (E)-1-((10S)-4-((4-([1,2,4]triazolo[1,5-a]pyridin-7-yloxy)-3-fluorophenyl)amino)-7,8,10,11-tetrahydro-9H-6,10-methanopyrimido[4′,5′:5,6]pyrido[3,2-b][1,4,7]oxadiazonin-9-yl)-4-(dimethylamino)but-2-en-1-one] | 8.92 | 6170
